Results: patent US9125805B2, “Stable formulations for parenteral injection of small molecule drugs” (Xeris Pharmaceuticals, Inc., priority 2012, dated 2015)
In brackets after ≈: the same amount, converted by molar mass. Like-named read-outs stand apart in the source and are kept apart here. Values belong to the molecule of their own block, whether it stands above or below them.

Tests used:
physchem = details: organic solvent or mixture, thermodynamic from solid

Molecule: CC(=O)Oc1ccccc1C(=O)O [Acetylsalicylic acid]
solubility (physchem; Solubility (class)): 30 to 100 mg/mL (≈ 167 to 555 mM)

Molecule: O=C(O)c1cc(=O)c2c(OCC(O)COc3cccc4oc(C(=O)O)cc(=O)c34)cccc2o1 [Cromolyn sodium]
solubility (physchem; Solubility (class)): 30 to 100 mg/mL

Molecule: OC(Cn1cncn1)(Cn1cncn1)c1ccc(F)cc1F [Fluconazole]
solubility (physchem; Solubility (class), solvent PEG 300): 30 to 100 mg/mL (≈ 98 to 327 mM)
solubility (physchem; Solubility, solvent 70:30 (v/v) DMSO:NMP): 850 mg/mL (≈ 2780 mM)
solubility (physchem; Solubility, solvent Benzyl Benzoate): 5 mg/mL (≈ 16.3 mM)
solubility (physchem; Solubility, solvent DMSO): 900 mg/mL (≈ 2940 mM)
solubility (physchem; Solubility, solvent NMP): 800 mg/mL (≈ 2610 mM)
solubility (physchem; Solubility, solvent PEG 300): 50 mg/mL (≈ 163 mM)
solubility (physchem; Solubility, solvent Triacetin): 5 mg/mL (≈ 16.3 mM)
Solubility (class) (solvent 70:30 (v/v) DMSO:NMP): Freely soluble
Solubility (class) (solvent Benzyl Benzoate): Slightly soluble
Solubility (class) (solvent DMSO): Freely soluble
Solubility (class) (solvent NMP): Freely soluble
Solubility (class) (solvent Triacetin): Slightly soluble

Molecule: Albuterol sulfate
Solubility (class) (solvent 70:30 (v/v) DMSO:NMP): Slightly soluble
solubility (solvent 70:30 (v/v) DMSO:NMP): 5 mg/mL
Solubility (class) (solvent Benzyl Benzoate): Practically insoluble
solubility (solvent Benzyl Benzoate): <0.1 mg/mL
Solubility (class) (solvent DMSO): Slightly soluble
solubility (solvent DMSO): 5 mg/mL
Solubility (class) (solvent NMP): Practically insoluble
solubility (solvent NMP): <0.1 mg/mL
Solubility (class) (solvent PEG 300): Practically insoluble
solubility (solvent PEG 300): <0.1 mg/mL
Solubility (class) (solvent Triacetin): Practically insoluble
solubility (solvent Triacetin): <0.1 mg/mL

Second part, the molecule after the results:

solubility (physchem; Solubility (class)): 30 to 100 mg/mL (≈ 36.5 to 122 mM)
Molecule: CO[C@H]1/C=C/O[C@@]2(C)Oc3c(C)c(O)c4c(O)c(c(/C=N/N5CCN(C)CC5)c(O)c4c3C2=O)NC(=O)/C(C)=C\C=C\[C@H](C)[C@H](O)[C@@H](C)[C@@H](O)[C@@H](C)[C@H](OC(C)=O)[C@@H]1C [Rifampicin]

solubility (physchem; Solubility): < 0.1 mg/mL
Molecule: NC[C@H]1O[C@H](O[C@H]2[C@H](O)[C@@H](O[C@H]3O[C@H](CO)[C@@H](O)[C@H](N)[C@H]3O)[C@H](N)C[C@@H]2N)[C@H](N)C[C@@H]1O [Tobramycin]
